Test results from ChEMBL document CHEMBL1201862, “PubChem BioAssay data set” (2004).
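Grown in 96-well plates, cells were treated for 48 hours with each compound at five concentrations. Insufficient inhibition: endpoint recorded as highest concentration tested. Abbreviation: GI50, concentration required for 50% inhibition of growth.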 Activity calls are given as the source filed them. No stated cut-off is given here; in the data, active = GI50 up to about 1.1 µM and inactive = higher.

Tests used:
Test in all cases: growth of human tumour cells (NCI), 48 h
CAKI-1 = tested on: CAKI-1
SK-MEL-2 = tested on: SK-MEL-2
TK-10 = tested on: TK-10
SF-268 = tested on: SF-268
MDA-MB-435 = tested on: MDA-MB-435
SW-620 = tested on: SW-620
HCC 2998 = tested on: HCC 2998
Malme-3M = tested on: Malme-3M
BT-549 = tested on: BT-549
T47D = tested on: T47D
SK-OV-3 = tested on: SK-OV-3
U-251 = tested on: U-251
NCI-H23 = tested on: NCI-H23
HL-60 = tested on: HL-60
CCRF-CEM = tested on: CCRF-CEM
786-0 = tested on: 786-0
UO-31 = tested on: UO-31
SR = tested on: SR
A549 = tested on: A549
SF-295 = tested on: SF-295
OVCAR-5 = tested on: OVCAR-5
SN12C = tested on: SN12C
IGROV-1 = tested on: IGROV-1
MDA-N = tested on: MDA-N
NCI-H226 = tested on: NCI-H226
UACC-62 = tested on: UACC-62
COLO 205 = tested on: COLO 205
PC-3 = tested on: PC-3
HOP-62 = tested on: HOP-62
SK-MEL-5 = tested on: SK-MEL-5
NCI-H460 = tested on: NCI-H460
HCT-116 = tested on: HCT-116
OVCAR-8 = tested on: OVCAR-8
MOLT-4 = tested on: MOLT-4
SF-539 = tested on: SF-539
OVCAR-4 = tested on: OVCAR-4
A498 = tested on: A498
Hs-578T = tested on: Hs-578T
LOX IMVI = tested on: LOX IMVI
MCF7 = tested on: MCF7
SNB-75 = tested on: SNB-75
MDA-MB-231 = tested on: MDA-MB-231
EKVX = tested on: EKVX
OVCAR-3 = tested on: OVCAR-3
M14 = tested on: M14
ACHN = tested on: ACHN
KM12 = tested on: KM12
SK-MEL-28 = tested on: SK-MEL-28
DU-145 = tested on: DU-145
RPMI-8226 = tested on: RPMI-8226
K562 = tested on: K562
HT-29 = tested on: HT-29
NCI/ADR-RES = tested on: NCI/ADR-RES
SNB-19 = tested on: SNB-19
HCT-15 = tested on: HCT-15
NCI-H522 = tested on: NCI-H522
HOP-92 = tested on: HOP-92
UACC-257 = tested on: UACC-257
RXF 393 = tested on: RXF 393

For CC(C)(C)c1ccc(C(O)(c2ccc(C(C)(C)C)cc2)c2ccc(C(C)(C)C)cc2)cc1, the GI50 (CAKI-1) was > 100 µM (inactive), the GI50 (SK-MEL-2) was > 100 µM (inactive) and the GI50 (TK-10) was > 100 µM (inactive). The GI50 (SF-268) was > 100 µM (inactive), the GI50 (MDA-MB-435) was > 100 µM (inactive) and the GI50 (SW-620) was > 100 µM (inactive). For the same compound, the GI50 (HCC 2998) was > 100 µM (inactive), the GI50 (Malme-3M) was 6.92 µM (inactive) and the GI50 (BT-549) was > 100 µM (inactive). For the same compound, the GI50 (T47D) was > 100 µM (inactive), the GI50 (SK-OV-3) was > 100 µM (inactive) and the GI50 (U-251) was > 100 µM (inactive). For the same compound, the GI50 (NCI-H23) was > 100 µM (inactive), the GI50 (HL-60) was > 100 µM (inactive) and the GI50 (CCRF-CEM) was > 100 µM (inactive). The GI50 (786-0) was > 100 µM (inactive), the GI50 (UO-31) was > 100 µM (inactive) and the GI50 (SR) was > 100 µM (inactive). For the same compound, the GI50 (A549) was > 100 µM (inactive), the GI50 (SF-295) was > 100 µM (inactive) and the GI50 (OVCAR-5) was > 100 µM (inactive). For the same compound, the GI50 (SN12C) was > 100 µM (inactive), the GI50 (IGROV-1) was > 100 µM (inactive) and the GI50 (MDA-N) was > 100 µM (inactive). The GI50 (NCI-H226) was > 100 µM (inactive), the GI50 (UACC-62) was > 100 µM (inactive) and the GI50 (COLO 205) was > 100 µM (inactive). The GI50 (PC-3) was > 100 µM (inactive), the GI50 (HOP-62) was > 100 µM (inactive) and the GI50 (SK-MEL-5) was > 100 µM (inactive). For the same compound, the GI50 (NCI-H460) was > 100 µM (inactive), the GI50 (HCT-116) was > 100 µM (inactive) and the GI50 (OVCAR-8) was > 100 µM (inactive). The GI50 (MOLT-4) was > 100 µM (inactive), the GI50 (SF-539) was > 100 µM (inactive) and the GI50 (OVCAR-4) was > 100 µM (inactive). The GI50 (A498) was > 100 µM (inactive), the GI50 (Hs-578T) was 70.5 µM (inactive) and the GI50 (LOX IMVI) was > 100 µM (inactive). The GI50 (MCF7) was > 100 µM (inactive), the GI50 (SNB-75) was > 100 µM (inactive) and the GI50 (MDA-MB-231) was > 100 µM (inactive). For the same compound, the GI50 (EKVX) was > 100 µM (inactive), the GI50 (OVCAR-3) was > 100 µM (inactive) and the GI50 (M14) was > 100 µM (inactive). The GI50 (ACHN) was > 100 µM (inactive), the GI50 (KM12) was > 100 µM (inactive) and the GI50 (SK-MEL-28) was > 100 µM (inactive). For the same compound, the GI50 (DU-145) was > 100 µM (inactive), the GI50 (RPMI-8226) was 52.2 µM (inactive) and the GI50 (K562) was > 100 µM (inactive). For the same compound, the GI50 (HT-29) was > 100 µM (inactive), the GI50 (NCI/ADR-RES) was > 100 µM (inactive) and the GI50 (SNB-19) was > 100 µM (inactive). For the same compound, the GI50 (HCT-15) was over 100 µM and the GI50 (NCI-H522) was > 100 µM (inactive).
With N#Cc1nc(/C=C/c2nc(C#N)c(N)o2)oc1N the GI50 (CAKI-1) was > 10 µM (inactive), the GI50 (TK-10) was > 10 µM (inactive) and the GI50 (SF-268) was > 10 µM (inactive). For the same compound, the GI50 (MDA-MB-435) was > 10 µM (inactive), the GI50 (HOP-92) was > 10 µM (inactive) and the GI50 (SW-620) was > 10 µM (inactive). For the same compound, the GI50 (HCC 2998) was > 10 µM (inactive), the GI50 (Malme-3M) was > 10 µM (inactive) and the GI50 (UACC-257) was > 10 µM (inactive). For the same compound, the GI50 (BT-549) was > 10 µM (inactive), the GI50 (T47D) was > 10 µM (inactive) and the GI50 (SK-OV-3) was > 10 µM (inactive). For the same compound, the GI50 (NCI-H23) was > 10 µM (inactive), the GI50 (HL-60) was > 10 µM (inactive) and the GI50 (CCRF-CEM) was > 10 µM (inactive). For the same compound, the GI50 (786-0) was > 10 µM (inactive), the GI50 (UO-31) was > 10 µM (inactive) and the GI50 (SR) was > 10 µM (inactive). For the same compound, the GI50 (A549) was > 10 µM (inactive), the GI50 (SF-295) was > 10 µM (inactive) and the GI50 (SN12C) was > 10 µM (inactive). For the same compound, the GI50 (IGROV-1) was > 10 µM (inactive), the GI50 (MDA-N) was > 10 µM (inactive) and the GI50 (NCI-H226) was > 10 µM (inactive). For the same compound, the GI50 (UACC-62) was > 10 µM (inactive), the GI50 (COLO 205) was > 10 µM (inactive) and the GI50 (PC-3) was > 10 µM (inactive). The GI50 (HOP-62) was > 10 µM (inactive), the GI50 (RXF 393) was > 10 µM (inactive) and the GI50 (SK-MEL-5) was > 10 µM (inactive). For the same compound, the GI50 (NCI-H460) was > 10 µM (inactive), the GI50 (HCT-116) was > 10 µM (inactive) and the GI50 (OVCAR-8) was > 10 µM (inactive). For the same compound, the GI50 (SF-539) was > 10 µM (inactive), the GI50 (OVCAR-4) was > 10 µM (inactive) and the GI50 (Hs-578T) was > 10 µM (inactive). The GI50 (LOX IMVI) was > 10 µM (inactive), the GI50 (MCF7) was > 10 µM (inactive) and the GI50 (SNB-75) was > 10 µM (inactive). The GI50 (MDA-MB-231) was > 10 µM (inactive), the GI50 (EKVX) was > 10 µM (inactive) and the GI50 (M14) was > 10 µM (inactive). The GI50 (ACHN) was > 10 µM (inactive), the GI50 (KM12) was > 10 µM (inactive) and the GI50 (SK-MEL-28) was > 10 µM (inactive). For the same compound, the GI50 (DU-145) was > 10 µM (inactive), the GI50 (RPMI-8226) was > 10 µM (inactive) and the GI50 (K562) was > 10 µM (inactive). The GI50 (HT-29) was > 10 µM (inactive), the GI50 (NCI/ADR-RES) was > 10 µM (inactive) and the GI50 (SNB-19) was > 10 µM (inactive). For the same compound, the GI50 (HCT-15) was over 10 µM and the GI50 (NCI-H522) was > 10 µM (inactive).
For CN1CCN(CN2C(=O)C3C4C=CC(C3C2=O)C2C(=O)N(CN3CCN(C)CC3)C(=O)C42)CC1 (configuration not stated), the GI50 (CAKI-1) was 38.1 µM (inactive), the GI50 (SK-MEL-2) was > 100 µM (inactive) and the GI50 (TK-10) was > 70.3 µM (inactive). For the same compound, the GI50 (SF-268) was > 62.1 µM (inactive), the GI50 (MDA-MB-435) was > 74.6 µM (inactive) and the GI50 (HOP-92) was > 100 µM (inactive). For the same compound, the GI50 (SW-620) was 4.97 µM (inactive), the GI50 (HCC 2998) was > 57.4 µM (inactive) and the GI50 (Malme-3M) was > 55.3 µM (inactive). The GI50 (UACC-257) was > 75.2 µM (inactive), the GI50 (BT-549) was 52.2 µM (inactive) and the GI50 (T47D) was > 68.4 µM (inactive). The GI50 (SK-OV-3) was > 100 µM (inactive), the GI50 (U-251) was > 54.5 µM (inactive) and the GI50 (NCI-H23) was > 49.8 µM (inactive). The GI50 (HL-60) was 20.5 µM (inactive), the GI50 (CCRF-CEM) was 28.6 µM (inactive) and the GI50 (786-0) was 54 µM (inactive). For the same compound, the GI50 (UO-31) was > 87.3 µM (inactive), the GI50 (SR) was 32.4 µM (inactive) and the GI50 (A549) was > 10 µM (inactive). The GI50 (SF-295) was > 82.4 µM (inactive), the GI50 (OVCAR-5) was > 100 µM (inactive) and the GI50 (SN12C) was > 58.9 µM (inactive). For the same compound, the GI50 (IGROV-1) was 50.6 µM (inactive), the GI50 (MDA-N) was > 57.3 µM (inactive) and the GI50 (NCI-H226) was > 87.1 µM (inactive). For the same compound, the GI50 (UACC-62) was 35 µM (inactive), the GI50 (COLO 205) was 54.6 µM (inactive) and the GI50 (PC-3) was > 84.5 µM (inactive). The GI50 (HOP-62) was > 54.1 µM (inactive), the GI50 (RXF 393) was 27 µM (inactive) and the GI50 (SK-MEL-5) was 5.55 µM (inactive). The GI50 (NCI-H460) was > 53.8 µM (inactive), the GI50 (HCT-116) was 36.6 µM (inactive) and the GI50 (OVCAR-8) was > 100 µM (inactive). The GI50 (MOLT-4) was 36.9 µM (inactive), the GI50 (SF-539) was > 49.3 µM (inactive) and the GI50 (OVCAR-4) was > 100 µM (inactive). The GI50 (Hs-578T) was > 100 µM (inactive), the GI50 (LOX IMVI) was 24.8 µM (inactive) and the GI50 (MCF7) was 27.2 µM (inactive). For the same compound, the GI50 (SNB-75) was > 100 µM (inactive), the GI50 (MDA-MB-231) was > 73.6 µM (inactive) and the GI50 (EKVX) was > 100 µM (inactive). The GI50 (OVCAR-3) was > 59.6 µM (inactive), the GI50 (M14) was > 51.3 µM (inactive) and the GI50 (ACHN) was > 64.4 µM (inactive). The GI50 (KM12) was 56.5 µM (inactive), the GI50 (SK-MEL-28) was > 42.9 µM (inactive) and the GI50 (DU-145) was 17.8 µM (inactive). The GI50 (RPMI-8226) was 20.7 µM (inactive), the GI50 (K562) was 45.7 µM (inactive) and the GI50 (HT-29) was 22.5 µM (inactive). For the same compound, the GI50 (NCI/ADR-RES) was > 60.4 µM (inactive), the GI50 (SNB-19) was > 63.1 µM (inactive) and the GI50 (HCT-15) was 34 µM. For the same compound, the GI50 (NCI-H522) was > 42.1 µM (inactive).
